Laboratory results published in ChEMBL document CHEMBL3046704, “Control of Muhlenbergia frondosa (wirestem muhly) with post-emergence sulfonylurea herbicides in maize (Zea mays)” (Crop Prot, 2007).

What was measured:
Muhlenbergia [1] = test: Post-emergence herbicidal activity against Muhlenbergia frondosa at 35 g a.i./ha measured after 28 days in presence of 28% UAN relative to untreated-control; assay type: functional
Muhlenbergia [2] = test: Post-emergence herbicidal activity against Muhlenbergia frondosa at 35 g a.i./ha measured after 56 days in presence of 28% UAN relative to untreated-control; assay type: functional
Muhlenbergia [3] = test: Post-emergence herbicidal activity against Muhlenbergia frondosa assessed as reduction in dry weight at 35 g a.i./ha measured after 56 days in presence of 28% UAN relative to untreated-control; assay type: functional; parameters: scale not given: the % may be the effect or the level left
Muhlenbergia [4] = test: Post-emergence herbicidal activity against Muhlenbergia frondosa assessed as increase in maize yield at 35 g a.i./ha in presence of 28% UAN relative to untreated-control; assay type: functional
Zea mays [5] = test: Phytotoxicity against Zea mays (maize) crop assessed as crop injury at 35 g a.i./ha measured after 7 days in presence of 28% UAN relative to control; assay type: organism-based; settings: in vivo, 168 h
Muhlenbergia [6] = test: Post-emergence herbicidal activity against Muhlenbergia frondosa assessed as reduction in density at 35 g a.i./ha measured after 56 days in presence of 28% UAN relative to untreated-control; assay type: functional; parameters: scale not given: the % may be the effect or the level left
Zea mays [7] = test: Phytotoxicity against Zea mays (maize) crop assessed as crop injury at 25 g a.i./ha measured after 7 days in presence of Agral 90 relative to control; assay type: organism-based; settings: in vivo, 168 h
Muhlenbergia [8] = test: Post-emergence herbicidal activity against Muhlenbergia frondosa assessed as reduction in density at 25 g a.i./ha measured after 56 days in presence of Agral 90 relative to untreated-control; assay type: functional; parameters: scale not given: the % may be the effect or the level left
Elymus repens [9] = test: Post-emergence herbicidal activity against Elymus repens (couch grass) at 35 g/ha relative to control; assay type: functional
Muhlenbergia [10] = test: Post-emergence herbicidal activity against Muhlenbergia frondosa assessed as increase in maize yield at 25 g a.i./ha in presence of Agral 90 relative to untreated-control; assay type: functional
Elymus repens [11] = test: Post-emergence herbicidal activity against Elymus repens (couch grass) relative to control; assay type: functional
Muhlenbergia [12] = test: Post-emergence herbicidal activity against Muhlenbergia frondosa at 25 g a.i./ha measured after 28 days in presence of Agral 90 relative to untreated-control; assay type: functional
Muhlenbergia [13] = test: Post-emergence herbicidal activity against Muhlenbergia frondosa assessed as reduction in dry weight at 25 g a.i./ha measured after 56 days in presence of Agral 90 relative to untreated-control; assay type: functional; parameters: scale not given: the % may be the effect or the level left
Muhlenbergia [14] = test: Post-emergence herbicidal activity against Muhlenbergia frondosa at 25 g a.i./ha measured after 56 days in presence of Agral 90 relative to untreated-control; assay type: functional
Muhlenbergia [15] = test: Post-emergence herbicidal activity against Muhlenbergia frondosa assessed as maize yield at 25 g a.i./ha in presence of Agral 90 (reference value: 9.64 tons/ha); assay type: functional
Elymus repens [16] = test: Post-emergence herbicidal activity against Elymus repens (couch grass) at 42 g/ha relative to control; assay type: functional
Muhlenbergia [17] = test: Post-emergence herbicidal activity against Muhlenbergia frondosa assessed as dry weight at 25 g a.i./ha measured after 56 days in presence of Agral 90 (reference value: 102 g); assay type: functional
Muhlenbergia [18] = test: Post-emergence herbicidal activity against Muhlenbergia frondosa assessed as number of plants at 25 g a.i./ha measured after 56 days in presence of Agral 90 (reference value: 41 /m2); assay type: functional
Muhlenbergia [19] = test: Post-emergence herbicidal activity against Muhlenbergia frondosa at 15 g a.i./ha measured after 28 days in presence of Agral 90 relative to untreated-control; assay type: functional
Muhlenbergia [20] = test: Post-emergence herbicidal activity against Muhlenbergia frondosa assessed as number of plants at 15 g a.i./ha measured after 56 days in presence of Agral 90 (reference value: 41 /m2); assay type: functional
Muhlenbergia [21] = test: Post-emergence herbicidal activity against Muhlenbergia frondosa at 15 g a.i./ha measured after 56 days in presence of Agral 90 relative to untreated-control; assay type: functional
Zea mays [22] = test: Phytotoxicity against Zea mays (maize) crop assessed as crop injury at 15 g a.i./ha measured after 7 days in presence of Agral 90 relative to control; assay type: organism-based; settings: in vivo, 168 h
Muhlenbergia [23] = test: Post-emergence herbicidal activity against Muhlenbergia frondosa assessed as dry weight at 15 g a.i./ha measured after 56 days in presence of Agral 90 (reference value: 102 g); assay type: functional
Muhlenbergia [24] = test: Post-emergence herbicidal activity against Muhlenbergia frondosa assessed as increase in maize yield at 15 g a.i./ha in presence of Agral 90 relative to untreated-control; assay type: functional

Q: For `COc1cc(OC)nc(NC(=O)NS(=O)(=O)c2cc(NC=O)ccc2C(=O)N(C)C)n1` [FORAMSULFURON], which Activity (Muhlenbergia [1]) is on record?
A: 80%

Q: And the Activity (Muhlenbergia [2])?
A: 89%

Q: What about the Activity (Muhlenbergia [3]) of the same molecule?
A: 94%

Q: And the Activity (Muhlenbergia [4])?
A: 17%

Q: What about the Activity (Zea mays [5]) of the same molecule?
A: 1.1%

Q: What about the Activity (Muhlenbergia [6]) of the same molecule?
A: 76%

Q: Which results are given for `COc1cc(OC)nc(NC(=O)NS(=O)(=O)c2ncccc2C(=O)N(C)C)n1` [NICOSULFURON]?
A: Activity (Zea mays [7]): 1.1%; Activity (Muhlenbergia [8]): 44%; Activity (Elymus repens [9]): 97%; Activity (Muhlenbergia [10]): 22%; Activity (Elymus repens [11]): 89%; Activity (Muhlenbergia [12]): 49%; Activity (Muhlenbergia [13]): 70%; Activity (Muhlenbergia [14]): 32%

Q: With `O=C(Nc1nc(OC(F)F)cc(OC(F)F)n1)NS(=O)(=O)c1ccccc1C(=O)O` [PRIMISULFURON] as the molecule, how does the Activity (Zea mays [7]) read?
A: 1.2%

Q: What about the Crop_yield (Muhlenbergia [15]) of the same molecule?
A: 10.1 tons/ha

Q: What about the Activity (Elymus repens [11]) of the same molecule?
A: 80%

Q: What about the Activity (Muhlenbergia [12]) of the same molecule?
A: 32%

Q: What about the Activity (Elymus repens [16]) of the same molecule?
A: 94%

Q: And the Activity (Muhlenbergia [17])?
A: 78 g

Q: And the Activity (Muhlenbergia [18])?
A: 39 /m2

Q: And the Activity (Muhlenbergia [14])?
A: 12%

Q: Which results are given for `CCS(=O)(=O)c1cccnc1S(=O)(=O)NC(=O)Nc1nc(OC)cc(OC)n1` [RIMSULFURON]?
A: Activity (Muhlenbergia [19]): 32%; Activity (Muhlenbergia [20]): 44 /m2; Activity (Elymus repens [11]): 63%; Activity (Muhlenbergia [21]): 14%; Activity (Zea mays [22]): 1.2%; Activity (Muhlenbergia [23]): 72 g; Activity (Muhlenbergia [24]): 11%
